In article PMC5076529, “Binding Sites for Acylated Trehalose Analogs of Glycolipid Ligands on an Extended Carbohydrate Recognition Domain of the Macrophage Receptor Mincle” (The Journal of Biological Chemistry, 2016):

Assays:
[1] = biological target: T1, mincle minimal CRD (bovine) (Bos taurus, UniProt E1BHM0, I174T); test: competition with […]-mannose-BSA on immobilized CRD; type: binding
T1 construct: gene CLEC4E; minimal C-type carbohydrate recognition domain, N-terminally truncated, lacks disulfide 4; E. coli, renatured from inclusion bodies
T1 sequence (E1BHM0 79-211 I174T): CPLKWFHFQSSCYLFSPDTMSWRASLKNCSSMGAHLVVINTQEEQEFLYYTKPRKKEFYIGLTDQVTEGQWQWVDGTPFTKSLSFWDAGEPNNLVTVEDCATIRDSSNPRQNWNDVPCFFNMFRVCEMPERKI

[2] = biological target: T2, mincle extended CRD (bovine) (Bos taurus, UniProt E1BHM0, I174T); test: X-ray crystallography, […] Å; details: pH 5.6 reservoir; primary sugar-binding site, conserved Ca2+; second substituent not visible
T2 construct: gene CLEC4E; extended CRD from Glu-64 to C terminus with one extra N-terminal Ala, includes disulfide 4; E. coli BL21(DE3) inclusion bodies, renatured, trehalose-Sepharose
T2 sequence (E1BHM0 64-211 I174T): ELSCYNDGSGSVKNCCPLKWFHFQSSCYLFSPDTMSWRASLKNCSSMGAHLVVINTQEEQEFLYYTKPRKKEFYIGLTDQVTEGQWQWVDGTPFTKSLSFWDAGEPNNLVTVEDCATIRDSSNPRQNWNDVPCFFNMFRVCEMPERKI

[3] = biological target: T2, mincle extended CRD (bovine); test: X-ray crystallography, […] Å; details: pH 5.5 reservoir; primary sugar-binding site, conserved Ca2+
[4] = biological target: T1, mincle minimal CRD (bovine); test: X-ray crystallography, […] Å; details: pH 5.6; primary sugar-binding site, conserved Ca2+; acyl chain only partly visible

Row | SMILES | Ki [1] [µM] | other results
1 | CCCCCC(=O)OC[C@H]1O[C@H](O[C@H]2O[C@H](COC(=O)CCCCC)[C@@H](O)[C@H](O)[C@H]2O)[C@H](O)[C@@H](O)[C@@H]1O [Dihexanoate] | 8.2 ± 0.3 | –
2 | CC(C)C(=O)OC[C@H]1O[C@H](O[C@H]2O[C@H](COC(=O)C(C)C)[C@@H](O)[C@H](O)[C@H]2O)[C@H](O)[C@@H](O)[C@@H]1O [Diisobutyrate] | 370 ± 40 | –
3 | CCCCC(=O)OC[C@H]1O[C@H](O[C@H]2O[C@H](COC(=O)CCCC)[C@@H](O)[C@H](O)[C@H]2O)[C@H](O)[C@@H](O)[C@@H]1O [Divalerate] | 59 ± 2 | –
4 | CCCCCCCCCC(=O)OC[C@H]1O[C@H](O[C@H]2O[C@H](CO)[C@@H](O)[C@H](O)[C@H]2O)[C@H](O)[C@@H](O)[C@@H]1O [Monodecanoate] | 5.1 ± 0.6 | –
5 | CCCCCCCCCCCC(=O)OC[C@H]1O[C@H](O[C@H]2O[C@H](CO)[C@@H](O)[C@H](O)[C@H]2O)[C@H](O)[C@@H](O)[C@@H]1O [Monododecanoate] | 3.1 ± 0.5 | –
6 | CCCCCCC(=O)OC[C@H]1O[C@H](O[C@H]2O[C@H](CO)[C@@H](O)[C@H](O)[C@H]2O)[C@H](O)[C@@H](O)[C@@H]1O [Monoheptanoate] | 137 ± 18 | –
7 | COc1cccc(C(=O)OC[C@H]2O[C@H](O[C@H]3O[C@H](COC(=O)c4cccc(OC)c4OC)[C@@H](O)[C@H](O)[C@H]3O)[C@H](O)[C@@H](O)[C@@H]2O)c1OC [brartemicin analog] | – | X-ray crystallography, 1.80 Å [2]: The structure of mincle bound to a synthetic analog of brartemicin was also examined
8 | Cc1cc(O)cc(O)c1C(=O)OC[C@H]1O[C@H](O[C@H]2O[C@H](COC(=O)c3c(C)cc(O)cc3O)[C@@H](O)[C@H](O)[C@H]2O)[C@H](O)[C@@H](O)[C@@H]1O [brartemicin] | – | X-ray crystallography, 2.20 Å [3]: structures of the extended CRD bound to either natural brartemicin or a synthetic analog
9 | CCCC(=O)OC[C@H]1O[C@H](O[C@H]2O[C@H](CO)[C@@H](O)[C@H](O)[C@H]2O)[C@H](O)[C@@H](O)[C@@H]1O [trehalose monobutyrate] | – | X-ray crystallography, 2.10 Å [4]: Co-crystals of trehalose monobutyrate and the CRD of mincle were examined
